Laboratory results from article PMC4601023, “Novel anticancer agent, SQAP, binds to focal adhesion kinase and modulates its activity” (Scientific Reports, 2015).

Legend:
[1] = biological target: T1, MFE-2 (598–736) (Homo sapiens, UniProt P51659); assay: SPR analysis, immobilized His-tagged MFE-2 (598-736); type: binding; conditions: Biacore 3000, CM5 chip, 25 °C, read-out: dissociation constant (KD) for MFE-2
T1 construct: For MFE-2 (598–736) DNA was amplified; made in house; host or cells: E. coli Rosetta 2 (DE3) pLysS
Text: (§1) SPR was utilized as an independent confirmation of the kinetic parameters between SQAP and the putative binding proteins. […] The recombinant proteins were then expressed in Escherichia coli and purified to homogeneity. In addition, full length, His-tagged ADRM1 and GST-tagged HR23B (GST-HR23B) were also used. The proteins were first immobilized on a CM5 sensor chip of the SPR biosensor (Biacore 3000). For GST-HR23B analysis, a GST protein was additionally immobilized and used as a control in order to eliminate possible nonspecific binding of SQAP. SQAP samples at different concentrations were then injected over the proteins immobilized on the sensor chip. As a negative control we used sulfoquynovosylpropanediol (SQP), which lacks the fatty acid moiety of SQAP (Fig. 1). […]
(§2) The binding kinetics of SCP-2, MFE-2, ADRM1, HR23B and FAK with SQAP and SQP were analyzed on a Biacore 3000 instrument (GE Healthcare, Little Chalfont, UK). […] The buffer of purified peptides was exchanged to HBS-P (150 mM NaCl, 0.005% Surfactant P20, 10 mM HEPES-NaOH pH 7.4) using a PD 10 column (GE Healthcare, Little Chalfont, UK) and the concentrations were quantified using DC protein assay kit (Bio-Rad Laboratories, Hercules, CA, USA). […] Kinetic parameters were determined by analyzing the data using BIAevaluation 4.1 software (GE Healthcare, Little Chalfont, UK).

[2] = test system: A549 cells; assay: Wound healing assay, A549; type: cell-based, human; conditions: A549, 25 h, 1% FBS and fibronectin 10 μg/mL; control 46%
Protocol: Figure 6 SQAP inhibits cell migration in vitro. (A) HUVEC cells were seeded and grown to 100% confluence in 60-mm diameter dishes. After generating a single scratch in the monolayer, the cells were cultured for 11 h in medium containing 1% FBS and VEGF (50 ng/mL) in the presence or absence of SQAP. Photographs were taken immediately after 11 h. (B) The change in wound width was measured as described in the Materials and Methods. (C) A549 cells were seeded and grown to 100% confluence in 60-mm diameter dishes. After generating a single scratch in the monolayer, the cells cultured for the 25 h in media containing 1% FBS and fibronectin (10 μg/ml) treated with SQAP or vehicle. Photographs were collected immediately after wounding and after 25 h. (D) The change in wound width was measured as described in the Materials and Methods. Cell migration was additionally examined in 96 well plates. HUVEC (E) and A549 cells (F) were seeded and grown into confluence overnight. After removing the stoppers, the live cells were stained with CellTracker^TM Green and incubated for the indicated time. The fluorescent emission signal was obtained with a plate reader. […]
Wound healing assay was analyzed by microscope imaging. […] Wound diameters in the images were measured and percentage of wound size was calculated as follows: [wound diameter at 11 or 25 h/wound diameter at 0 h] x 100.

[3] = biological target: T2, FAK (910–1052) (Homo sapiens, UniProt Q05397); assay: SPR analysis, immobilized His-tagged FAK (910-1052); type: binding; conditions: Biacore 3000, CM5 chip, 25 °C, read-out: dissociation constant (KD) for FAK
T2 construct: For FAK (910–1052) DNA was amplified; made in house; host or cells: E. coli BL21 (DE3)
Text: as §1, §2

T1 sequence (P51659 598-736): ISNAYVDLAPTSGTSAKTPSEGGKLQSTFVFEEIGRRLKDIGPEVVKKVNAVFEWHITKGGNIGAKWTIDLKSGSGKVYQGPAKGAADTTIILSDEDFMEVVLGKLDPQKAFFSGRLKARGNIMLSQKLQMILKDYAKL
T2 sequence (Q05397 910-1052): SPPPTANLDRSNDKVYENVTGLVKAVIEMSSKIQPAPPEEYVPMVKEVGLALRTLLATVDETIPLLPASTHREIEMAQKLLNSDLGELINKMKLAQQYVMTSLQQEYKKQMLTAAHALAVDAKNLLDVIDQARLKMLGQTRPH

Kd [1]: 14.2 µM | Kd [3]: 3.24 µM
SMILES: CCCCCCCCCCCCCCCCCC(=O)OCCCO[C@H]1O[C@H](CS(=O)(=O)O)[C@@H](O)[C@H](O)[C@H]1O [SQAP, sulfoquynovosylacylpropanediol]
wound size [2]: 68%
